Numbers after ± are expanded uncertainties.
Experiments:
[1] = refractive index (Na D-line) (dimensionless); conditions: 293.15 K; 101.33 kPa; Liquid; Standard Abbe refractometry
[2] = 293.15 K, 101.33 kPa, Liquid
[3] = excess molar enthalpy (molar enthalpy of mixing); xn = mol fraction of the nth substance listed; conditions: 101 kPa, Liquid, Flow calorimetry

CC#N [acetonitrile]
Conditions | refractive index
[1] | 1.3441 ± 0.0007

Conditions | mass density [kg/m3]
[2], Vibrating tube method | 784.6 ± 0.2

CCCCCCCO [heptan-1-ol]
Conditions | mass density [kg/m3] | refractive index
[1] | – | 1.4245 ± 0.0007
[2] | 822.3 ± 0.7 | –

CCCCCCCO [heptan-1-ol] + CC#N
[3]
Conditions | excess molar enthalpy [kJ/mol]
298.15 K, x1 = 0.0529 | 0.589 ± 0.014
298.15 K, x1 = 0.1128 | 1.09 ± 0.019
298.15 K, x1 = 0.1738 | 1.53 ± 0.025
298.15 K, x1 = 0.2352 | 1.82 ± 0.029
298.15 K, x1 = 0.2962 | 2.03 ± 0.032
298.15 K, x1 = 0.3561 | 2.16 ± 0.034
298.15 K, x1 = 0.4143 | 2.22 ± 0.035
298.15 K, x1 = 0.4701 | 2.23 ± 0.035
298.15 K, x1 = 0.5231 | 2.19 ± 0.035
298.15 K, x1 = 0.573 | 2.11 ± 0.034
298.15 K, x1 = 0.6194 | 2.01 ± 0.032
298.15 K, x1 = 0.6623 | 1.88 ± 0.03
298.15 K, x1 = 0.7015 | 1.74 ± 0.028
298.15 K, x1 = 0.7692 | 1.46 ± 0.024
298.15 K, x1 = 0.8038 | 1.27 ± 0.021
298.15 K, x1 = 0.8621 | 0.923 ± 0.016
298.15 K, x1 = 0.9271 | 0.485 ± 0.012
313.15 K, x1 = 0.0698 | 0.777 ± 0.018
313.15 K, x1 = 0.1417 | 1.37 ± 0.022
313.15 K, x1 = 0.2146 | 1.8 ± 0.029
313.15 K, x1 = 0.2872 | 2.11 ± 0.033
313.15 K, x1 = 0.3584 | 2.28 ± 0.036
313.15 K, x1 = 0.427 | 2.35 ± 0.037
313.15 K, x1 = 0.4923 | 2.35 ± 0.037
313.15 K, x1 = 0.5533 | 2.29 ± 0.036
313.15 K, x1 = 0.6096 | 2.17 ± 0.034
313.15 K, x1 = 0.6608 | 2.01 ± 0.032
313.15 K, x1 = 0.707 | 1.83 ± 0.029
313.15 K, x1 = 0.7482 | 1.64 ± 0.026
313.15 K, x1 = 0.7845 | 1.46 ± 0.024
313.15 K, x1 = 0.8163 | 1.27 ± 0.021
313.15 K, x1 = 0.8439 | 1.09 ± 0.018
313.15 K, x1 = 0.8642 | 0.955 ± 0.016
313.15 K, x1 = 0.9283 | 0.505 ± 0.012
323.15 K, x1 = 0.0704 | 0.795 ± 0.019
323.15 K, x1 = 0.1429 | 1.46 ± 0.024
323.15 K, x1 = 0.2161 | 1.96 ± 0.031
323.15 K, x1 = 0.2891 | 2.26 ± 0.036
323.15 K, x1 = 0.3605 | 2.4 ± 0.038
323.15 K, x1 = 0.4293 | 2.45 ± 0.039
323.15 K, x1 = 0.4946 | 2.43 ± 0.038
323.15 K, x1 = 0.5555 | 2.37 ± 0.037
323.15 K, x1 = 0.6117 | 2.26 ± 0.036
323.15 K, x1 = 0.6629 | 2.08 ± 0.033
323.15 K, x1 = 0.7089 | 1.89 ± 0.03
323.15 K, x1 = 0.7499 | 1.69 ± 0.027
323.15 K, x1 = 0.786 | 1.5 ± 0.024
323.15 K, x1 = 0.8177 | 1.32 ± 0.022
323.15 K, x1 = 0.8451 | 1.14 ± 0.019
323.15 K, x1 = 0.8642 | 1.01 ± 0.017
323.15 K, x1 = 0.9283 | 0.558 ± 0.013
